We go through five compounds from patent publication US12553882B2, “Use of PAK4 and CRTC1 for treatment or diagnosis of brain degenerative disease” (CHUNGBUK NATIONAL UNIVERSITY INDUSTRY-ACADEMIC COOPERATION …, priority 2017, dated 2026).

In series [1] the test system is rat PAK4. The experiment in a line: Knock-down of PAK4 by lentiviral shRNA. Type of series: in vivo. As to conditions: lentiviral rat PAK4 hCMV-TurboGFP shRNA. An excerpt:
Lentiviral rat PAK4 hCMV-TurboGFP shRNAs were purchased from Dharmacon and Open Biosystems. […] In this case, lentiviral shRNA control particles (#S-005000-01) were used as a control.
Protein extracts were obtained by conventional protein extraction methods, and immunoblots were visualized using HRP-conjugated secondary antibodies to IgG and chemiluminescent substrate (SuperSignal Ultra; Pierce). For quantitative analysis of protein levels, each band density of the immunoblots was quantitatively analyzed using the National Institutes of Health ImageJ software (National institutes of Health).
As a method for checking the action of PAK4 in Parkinson's disease, the present inventors injected a lent viral green fluorescent protein (GFP) small hairpin control (shCtrl) or lentiviral-GFP-shPAK4 construct into the right striatum of the rat brain to analyze the role of PAK4 in Parkinson's disease.

Series [2] relates to rat CRTC1. Put plainly: Knock-down of CRTC1 by lentiviral shRNA, 6-OHDA rat model. Format: in vivo. The note with it: lentiviral rat CRTC1 hCMV-TurboGFP shRNA.
Series [3] has as its system TH-positive DA neurons. Put plainly: PF-3758309 stereotaxic injection into the SN, analysis of TH-positive neurons and fibers. Format: in vivo, rat. The note with it: PF-3758309 injected into the SN (substantia nigra). The protocol:
Mice were anesthetized with chloral hydrate (360 mg/kg, intraperitoneal [i.p.] injection) and then placed in a stereotaxic instrument (Kopf Instruments, Tujunga, CA, USA). The injection site coordinates in the right SN were 5.3 mm AP, 2.0 mm ML and 7.6 mm DV, from the bregma. Then, PF-3758309 (0.5 μg) was injected using a Hamilton syringe needle (33-gauge needle). In this case, the flow rate of the injection solution (2 ul) was allowed to be at 0.25 ul/min. After the injection, the syringe needle was maintained as it is for 5 more minutes to suppress the reflux of the solution. […]
Human brain tissue slices embedded with paraffin were deparaffinized with xylene. […] Samples were reacted with Alexa 488- or Alexa 594-conjugated secondary antibodies for fluorescence microscopic analysis. […] For Nissl-staining, SN tissue was fixed on a gelatin-coated slide and dried at room temperature for 1 hour, stained with 0.5% cresyl violet, dehydrated, covered with a cuff slip and analyzed using a bright field microscopy (Nikon).
The unbiased stereological analysis of the total number of TH+ neurons was performed using an optical fractionator method and Stereo Investigator software (MBF Bioscience, Williston, VT). The method is an assay which is not influenced by reference volume (SNpc) or size of counted elements (neurons). The total number of neurons was calculated by Optical Fractionator Equation. […]

As for “SH-082018-01: lentiviral rat PAK4 shRNA, TTACGCAAGTCCATCTTCT, Dharmacon and Open Biosystems”, the “knock-down of the expression of PAK4” value in series [1] is “effectively knocked down”. Same read-out and setting: next, “SH-082018-02: lentiviral rat PAK4 shRNA, TGATCGAAGCCTGTGTGTA, Dharmacon and Open Biosystems”: “effectively knocked down”. As for “SH-111776-01: lentiviral rat CRTC1 shRNA, CACGATATACTCTGTCCAC”, in series [2], the “knock-down of the expression of CRTC1” value was “effectively knocked down”. As to “SH-111776-02: lentiviral rat CRTC1 shRNA, TCGCTAAATTTCCGCGGAT”, the “knock-down of the expression of CRTC1” value in series [2] was “effectively knocked down”.

Take `Cc1nc(Nc2[nH]nc3c2CN(C(=O)N[C@H](CN(C)C)c2ccccc2)C3(C)C)c2sccc2n1` [PF-3758309]: in series [3], the “TH-positive DA neurons” value is “decreased”.
